Measurements from publication PMC3722118, “Hellebrin and its aglycone form hellebrigenin display similar in vitro growth inhibitory effects in cancer cells and binding profiles to the alpha subunits of the Na^+/K^+-ATPase” (Molecular Cancer, 2013).
Read-outs that look alike come from different tables or passages of the source.

What was measured:
[1] = tested on: human cancer cells (A549, U373, Hs683, T98G, MCF-7, SKMEL-28, PC-3, HT-29); assay: MTT growth inhibition, mean over the eight human cancer cell lines; format: cell-based; details: 72 h, read-out: IC50 (nM) Mean ± SEM
From the text: (§1) The histological types and origins of the eight human cancer cell lines that were used for the MTT colorimetric assay are detailed in the legend of Table 1. Two mouse cancer cell lines were also used, the CT26.WT colon cancer cell line (ATCC code CRL-2638) and the B16F10 melanoma cell line (ATCC code CRL-6475). Both cell lines were obtained from the American Type Culture Collection (ATCC, Manassas, VA). A control cell line (human NHDF fibroblasts) was obtained from PromoCell (code c-12300; Heidelberg, Germany). The cell lines detailed in Figure 2A are a generous gift from the National Cancer Institute (NCI, Bethesda, USA) to Steven Karlish’s lab.
(§2) The cancer cells were cultured in RPMI (Lonza, Verviers, Belgium) medium supplemented with 10% heat-inactivated fetal calf serum (Lonza). All culture media were supplemented with 4 mM glutamine, 100 μg/mL gentamicin, 200 U/mL penicillin and 200 μg/mL streptomycin (Lonza). The NHDF fibroblasts were cultured in Lonza medium cc3132 KT FGM-2 BulletKit.
(§3) The overall growth level of the human cancer cell lines was determined using a colorimetric MTT (3-(4,5-dimethylthiazol-2yl)-2,5-diphenyltetrazolium bromide, Sigma, Belgium) assay as detailed previously. Briefly, this test measures the number of metabolically active (thus living) cells that are able to transform the yellow MTT into the blue formazan dye via a mitochondrial reduction involving succinate dehydrogenase. The amount of formazan obtained at the end of the experiment (measured by spectrophotometry) is directly proportional to the number of living cells. The determination of the optical density in the control compared to the treated cells therefore enables quantitative measurements of the effects of compounds on the growth of normal as well as cancer cells in vitro.
(§4) Each experimental condition was performed in six replicates.

[2] = biological target: T1, human α1β1 NaK complex (Homo sapiens, UniProt P05023); details: 3H-ouabain displacement; ref Katz et al. [5]; read-out: Affinity (nM) α-1 (KD ± SEM); cited from earlier work
T1 construct: made in house; host or cells: Pichia pastoris strain SMD1165 (membranes)

[3] = biological target: T2, human α2β1 NaK complex (Homo sapiens, UniProt P50993); details: ref Katz et al. [5], cited from earlier work; for Kd: 3H-ouabain displacement, read-out: Affinity (nM) α-2 (KD ± SEM); for Selectivity α-1 / α-2: ratio of KD α-1 to KD α-2
T2 construct: made in house; host or cells: Pichia pastoris strain SMD1165 (membranes)

[4] = tested on: Hs683 glioma cells; assay: MTT colorimetric in vitro growth inhibition assay; format: cell-based, human; details: read-out: IC50 (nM) Hs683
From the text: as §1, §2, §3, §4

[5] = tested on: T98G glioma cells; assay: MTT colorimetric in vitro growth inhibition assay; format: cell-based, human; details: read-out: IC50 (nM) T98G
From the text: as §1, §2, §3, §4

[6] = tested on: U373 glioma cells; assay: MTT colorimetric in vitro growth inhibition assay; format: cell-based, human; details: read-out: IC50 (nM) U373
From the text: as §1, §2, §3, §4

[7] = tested on: SKMEL-28 melanoma cells; assay: MTT colorimetric in vitro growth inhibition assay; format: cell-based, human; details: read-out: IC50 (nM) SKMEL-28
From the text: as §1, §2, §3, §4

[8] = tested on: HT-29 colon cancer cells; assay: MTT colorimetric in vitro growth inhibition assay; format: cell-based, human; details: read-out: IC50 (nM) HT-29
From the text: as §1, §2, §3, §4

[9] = tested on: A549 NSCLC cells; assay: MTT colorimetric in vitro growth inhibition assay; format: cell-based, human; details: read-out: IC50 (nM) A549
From the text: as §1, §2, §3, §4

[10] = tested on: MCF-7 breast cancer cells; assay: MTT colorimetric in vitro growth inhibition assay; format: cell-based, human; details: read-out: IC50 (nM) MCF-7
From the text: as §1, §2, §3, §4

[11] = tested on: PC-3 prostate cancer cells; assay: MTT colorimetric in vitro growth inhibition assay; format: cell-based, human; details: read-out: IC50 (nM) PC-3
From the text: as §1, §2, §3, §4

[12] = biological target: T3, human α3β1 NaK complex (Homo sapiens, UniProt P13637); details: ref Katz et al. [5], cited from earlier work; for Kd: 3H-ouabain displacement, read-out: Affinity (nM) α-3 (KD ± SEM); for Selectivity α-1 / α-3: ratio of KD α-1 to KD α-3
T3 construct: made in house; host or cells: Pichia pastoris strain SMD1165 (membranes)

[13] = mean over eight human cancer cell lines, three days of culture
[14] = Homo sapiens, Hs 683, 72 h, three days of culture, * three independent experiments, ** one experiment, six replicates
[15] = Homo sapiens, T98G, 72 h, three days of culture, * three independent experiments, ** one experiment, six replicates
[16] = Homo sapiens, U373 MG, 72 h, three days of culture, * three independent experiments, ** one experiment, six replicates
[17] = Homo sapiens, SK-MEL-28, 72 h, three days of culture, * three independent experiments, ** one experiment, six replicates
[18] = Homo sapiens, HT-29, 72 h, three days of culture, * three independent experiments, ** one experiment, six replicates
[19] = Homo sapiens, A549, 72 h, three days of culture, * three independent experiments, ** one experiment, six replicates
[20] = Homo sapiens, MCF7, 72 h, three days of culture, * three independent experiments, ** one experiment, six replicates
[21] = Homo sapiens, 72 h, three days of culture, * three independent experiments, ** one experiment, six replicates
[22] = three days of culture, * three independent experiments, ** one experiment, six replicates

SMILES | IC50 [1, 13] [nM] | Kd [2] [nM] | Kd [3] [nM] | Selectivity α-1 / α-2 [3] | IC50 [4, 14] [nM] | IC50 [5, 15] [nM] | IC50 [6, 16] [nM] | IC50 [7, 17] [nM] | IC50 [8, 18] [nM] | IC50 [9, 19] [nM] | IC50 [10, 20] [nM] | IC50 [11, 21] [nM] | Kd [12] [nM] | Selectivity α-1 / α-3 [12] | other results
C[C@@H]1O[C@@H](O[C@H]2CC[C@@]3(C)[C@@H](CC[C@@H]4[C@@H]3CC[C@]3(C)[C@@H](C5=CC(=O)OC5)CC[C@]43O)C2)[C@H](O)[C@H](O)[C@H]1O [Uzarigenin-rhamnoside] | 147 ± 55 | 90 ± 20 | 96 ± 7 | 0.9 | 38 | 38 | 247 | 222 | 41 | 45 | 469 | 77 | 122 ± 9 | 0.7 | 
C[C@H]1O[C@@H](O[C@H]2[C@@H](O)C[C@H](O[C@H]3[C@@H](O)C[C@H](O[C@H]4CC[C@@]5(C)[C@H](CC[C@@H]6[C@@H]5CC[C@]5(C)[C@@H](C7=CC(=O)OC7)[C@@H](O)C[C@]65O)C4)O[C@@H]3C)O[C@@H]2C)C[C@H](O)[C@@H]1O [Gitoxin] |  | 123 ± 8 | 85 ± 3 | 1.5 |  |  |  |  |  |  |  |  | 108 ± 17 | 1.1 | IC50 ([1]; Homo sapiens): 362 ± 96 nM; IC50 ([4]; Homo sapiens, Hs 683, 72 h): 79 nM; IC50 ([5]; Homo sapiens, T98G, 72 h): 174 nM; IC50 ([6]; Homo sapiens, U373 MG, 72 h): 351 nM; IC50 ([7]; Homo sapiens, SK-MEL-28, 72 h): 679 nM; IC50 ([8]; Homo sapiens, HT-29, 72 h): 352 nM; IC50 ([9]; Homo sapiens, A549, 72 h): 68 nM; IC50 ([10]; Homo sapiens, MCF7, 72 h): 828 nM; IC50 ([11]; Homo sapiens, 72 h): 361 nM
C[C@]12CC[C@H](O)C[C@@H]1CC[C@@H]1[C@@H]2CC[C@]2(C)[C@@H](C3=CC(=O)OC3)CC[C@]12O [Uzarigenin] |  | 1100 | 883 ± 56 | 1.3 |  |  |  |  |  |  |  |  | 1280 | 0.9 | IC50 [4, 22]: 2250 nM; IC50 [5, 22]: 5140 nM; IC50 [6, 22]: 7920 nM; IC50 [7, 22]: > 10000 nM; IC50 [8, 22]: 6440 nM; IC50 [9, 22]: 3170 nM; IC50 [10, 22]: > 10000 nM; IC50 [11, 22]: 6280 nM
C[C@]12CC[C@H](O)C[C@H]1CC[C@@H]1[C@@H]2CC[C@]2(C)[C@@H](C3=CC(=O)OC3)[C@@H](O)C[C@]12O [Gitoxigenin, gitoxigenin] | > 4250 | 500 ± 90 | 1180 | 0.4 | 653 | 3590 | 4480 | > 10000 | 4400 | 1720 | 5190 | 3960 | 1050 | 0.5 | 
